# Experimental data published in article PMC1838524 (The Journal of biological chemistry, 2006).
# Biological target: T1, Vam7p PX domain (Saccharomyces cerevisiae, UniProt P32912)
# T1 sequence (P32912 2-122): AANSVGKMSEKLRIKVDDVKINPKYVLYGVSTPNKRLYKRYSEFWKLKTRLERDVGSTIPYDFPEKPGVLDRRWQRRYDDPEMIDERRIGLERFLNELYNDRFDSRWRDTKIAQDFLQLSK
# Assay: 1H-15N HSQC NMR titration
# Assay type: binding
smiles,measurement,value
"CCCCCC(=O)OC[C@H](COP(=O)(O)OC[C@H](N)C(=O)O)OC(=O)CCCCC [C6-PtdSer, 1,2-dicaproyl-sn-glycero-3-[phospho-L-serine]]",1H-15N HSQC NMR titration (chemical shift perturbation),NMR titration of soluble dicaproyl (C6)-PtdSer into the PX domain
